# In patent publication US7122624B2, “Parathyroid hormone receptor ligands” (The United States of America as represented by the …, priority 1999, dated 2006):
# No end group written: not given here.
# Columns and labels:
# [1] = target: T1, P2-NP1 receptor (Homo sapiens, UniProt P49190+Q03431, A242R/A272V/A275H/A276I/A279I/A426C/A456S/C397H/D353E/DEL244-271/DEL429-429/DEL62-106/E317D/E431S/F287M/F327I/F461Y/G350R/G395V/I363Y/I379L/I381T/I470V/INS277[…]/K318T/K359I/L228V/L289I/L331F/L389I/L407A/L416V/L436G/L446F/M312V/M414V/M425V/M445L/N348D/N358D/P415L/Q401K/Q438E/Q440R/R282K/R390W/R396G/S308N/S341V/S356A/S370A/S433T/S473M/T273H/T286V/T325I/T349A/T427L/T430H/T435L/V235T/V283I/V326L/V334A/V338A/V340A/V342A/V365A/V372G/V432F/V439I/Y443C); assay: Filtration binding assay, COS-7 membranes, P2-NP1 chimeric receptor; conditions: 10 μM GTPγS
# T1 construct: N-terminal domain and first transmembrane domain of the PTH 1 receptor fused to the remainder of the PTH2 receptor (P2-NP1); residues 172–550 of the PTH2 receptor; expressed in transfected cells; host or cells: COS-7 (transient)
# [2] = target: T2, PTH2 receptor (Homo sapiens, UniProt P49190); assay: Filtration binding assay, COS-7 membranes, wild-type PTH2 receptor; parameters: expressed in transfected cells; host or cells: COS-7 (transient), pcDNA1/Amp; conditions: 10 μM GTPγS
# [3] = target: T2, PTH2 receptor; assay: Radioligand displacement binding to HEK293 cell membranes expressing the human PTH2 receptor
# Method: (§1) In these assays the binding of a range of concentrations of an unlabeled ligand was measured by displacement of radioligand binding. Three methods were employed. An assay employing centrifugation to separate bound and free radioligand was used to accurately measure ligand binding parameters. A higher-throughput method employing rapid filtration was used to generate comparative ligand binding data. […] In these assays a very low concentration of radioligand was used so that the IC50 closely approximates the ligand affinity.
# (§2) In the centrifugation assay cell membranes (45–50 μg), radioligand (100,000–300,000 cpm) and unlabeled ligand were incubated in a final volume of 1 ml assay buffer (20 mM HEPES, 100 mM NaCl, 1 mM EDTA, 3 mM MgSO4 pH 7.5, supplemented with 0.3% non-fat dried milk powder, 100 μM AEBSF and 1 μg/ml bacitracin) for two hours at 21° C. Membranes were collected at 18,000×g, the surface of the pellet gently washed and the radioactivity counted as described in Examples. […] Less than 20% of the total radioligand added was bound within the membrane pellet. […] (Greater than 50% of the total radioligand was bound if all the membrane in the incubation was from transfected cells).
# (§3) For inhibition of radioligand binding, y is the cpm bound at a given unlabeled ligand concentration, min is non-specific binding (measured in the presence of a high concentration of the unlabeled version of the radiolabeled ligand) and max is total binding (measured in the absence of unlabeled ligand).
# (§4) Binding was measured in the presence of 10 μM GTPγS to minimize complications arising from receptor-G-protein coupling, such as pseudo-irreversible binding of the agonist radioligand.
# (§5) A similar assay design was used for the PTH1 and PTH2 receptor, in which radiolabeled agonist binding was displaced by the unlabeled ligands in the presence of 10 μM GTPγS. Briefly, cell membranes (45 μg), radioligand (50,000 cpm) and unlabeled ligand were incubated in a final volume of 1 ml assay buffer (20 mM HEPES, 100 mM NaCl, 1 mM EDTA, 3 mM MgSO4 pH 7.5, supplemented with 0.3% non-fat dried milk powder, 100 μM (4-(2-aminoethyl))-benzenesulfonylflouride (AEBSF), 1 μg/ml bacitracin and 10 μM GTPγS) for two hours at 21° C. Membranes were collected at 18,000×g, the surface of the pellet gently washed and the radioactivity counted as described in Examples. […] To prevent greater than 20% of the total radioligand added from binding to the membranes, 15–20 μg of membranes from transfected cells were used, made up to 45 μg with membranes from non-transfected cells.
# [4] = target: T3, P1-NP2 receptor (Homo sapiens, UniProt P49190+Q03431, A289V/A293V/A295V/A297V/A304T/A311S/A320V/A325S/A362L/C381A/C397Y/D272E/D303N/D313N/DEL207-232/E308D/E392Q/F286L/F386V/F400L/G327V/G351R/G390L/H202T/H204A/H352C/H384T/I205A/I234A/I238V/I244L/I280T/I282F/I314K/I344L/I393V/INS200[…]/INS383Y/K237R/K356Q/L281V/L334I/L370P/L382T/L389T/L399M/M242F/M427S/N263S/R199A/R305G/R394Q/S385E/S410A/T192V/T273K/T336I/T387S/V185L/V201A/V241T/V267M/V296S/V350G/V369M/V371L/V380M/V424I/W345R/Y318I/Y415F); assay: Filtration binding assay, COS-7 membranes, P1-NP2 chimeric receptor; conditions: 10 μM GTPγS
# T3 construct: the N-terminal domain and first transmembrane domain of the PTH2 receptor fused to the remainder of the PTH1 receptor (P1-NP2); exchanging residues 215–594 of the PTH1 receptor; expressed in transfected cells; host or cells: COS-7 (transient)
# [5] = system: PTH1 receptor; assay: Filtration binding assay, COS-7 membranes, wild-type PTH1 receptor; parameters: species or system human; conditions: 10 μM GTPγS
# [6] = target: T4, human PTH1 receptor (Homo sapiens, UniProt Q03431); assay: cAMP accumulation in HEK293 cells stably expressing the human PTH1 receptor (293PTH1); assay type: cell-based; parameters: expressed in transfected cells; conditions: 293PTH1 cells, cAMP
# T4 sequence (Q03431 27-593): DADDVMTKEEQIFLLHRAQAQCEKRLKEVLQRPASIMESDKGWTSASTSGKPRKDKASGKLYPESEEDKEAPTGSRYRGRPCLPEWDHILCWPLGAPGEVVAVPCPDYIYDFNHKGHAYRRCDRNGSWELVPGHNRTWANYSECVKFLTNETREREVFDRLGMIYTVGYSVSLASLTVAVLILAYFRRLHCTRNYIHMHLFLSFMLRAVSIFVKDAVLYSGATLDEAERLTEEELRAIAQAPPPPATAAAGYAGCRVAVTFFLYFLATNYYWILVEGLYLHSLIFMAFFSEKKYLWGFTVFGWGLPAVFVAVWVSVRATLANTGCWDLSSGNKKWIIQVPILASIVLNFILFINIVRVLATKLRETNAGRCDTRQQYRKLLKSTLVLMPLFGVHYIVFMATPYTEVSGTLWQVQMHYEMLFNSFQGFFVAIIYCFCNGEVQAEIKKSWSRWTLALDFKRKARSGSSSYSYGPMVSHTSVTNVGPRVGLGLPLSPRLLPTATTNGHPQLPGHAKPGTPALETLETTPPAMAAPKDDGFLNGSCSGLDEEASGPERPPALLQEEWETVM
# [7] = target: T4, human PTH1 receptor; assay: Radioligand displacement binding to HEK293 cell membranes expressing the human PTH1 receptor
# Method: as §1, §2, §3, §4, §5
# [8] = target: T4, human PTH1 receptor; assay: cAMP accumulation in COS-7 cells transiently expressing the human PTH1 receptor; conditions: for Kb: pKB as concentration
# Method: (§6) COS-7 cells were grown as previously described in Clark et al. For cAMP accumulation assays COS-7 cells were transfected as previously described in Clark et al. except that transfections were performed in 10 cm tissue culture dishes using 10 μg of plasmid DNA. The cells were transferred following trypsinization to 96-well plates at a density of 50,000 cells/well the following day. Cells were used for cAMP accumulation assays three days after transfection.
# (§7) Ligand-stimulated accumulation of cAMP was measured as described in Examples, using a radioimmunoassay to quantify cAMP (Clark et al., supra).
# Slightly different procedures were used depending on the experimental paradigm. […] This buffer was removed and replaced with 40 μl fresh buffer. Test agents were added in a volume of 10 μl and the cells incubated for an additional 40 min at 37° C. The assay was then terminated by the addition of 50 μl 0.1 N HCl, 0.1 mM CaCl2. […] After a further 40 minutes at 37° C. the assay was terminated as described above. […] The buffer was removed and the following solutions added sequentially: 30 μl buffer containing plasma, 10 μl antagonist in buffer and 10 μl rPTH(1–34) in buffer. The cells were incubated at 37° C. for 40 minutes prior to assay termination. Human plasma was prepared by addition of EDTA to whole blood at a final concentration of 10 mM followed by centrifugation at 1,000×g for 10 minutes. The plasma supernatant was collected and stored in aliquots at −80° C. before use. cAMP was quantified using a RIA as previously described (Clark et al., supra).
# For cAMP accumulation data y is the amount of cAMP produced at a given peptide concentration, min is the cAMP level in the absence of ligand, max is the maximum level produced and K is the log EC50.
# The pA2 was subsequently converted to a pKB value by fixing n at unity in the linear regression analysis.
# [9] = target: T2, PTH2 receptor; assay: cAMP accumulation in HEK293 cells stably expressing the human PTH2 receptor (293PTH2); assay type: cell-based; parameters: expressed in transfected cells; conditions: 293PTH2 cells
# Method: as §6, §7
# For cAMP accumulation data y is the amount of cAMP produced at a given peptide concentration, min is the cAMP level in the absence of ligand and max is the maximum level produced. […] Statistical comparison of multiple means was performed initially by single-factor analysis of variance followed by post-hoc analysis with the Newman-Keuls test. Statistical comparison of two means was performed using a two-tailed Student's t-test.
# [10] = target: T5, rat PTH1 receptor (Rattus norvegicus, UniProt P25961); assay: cAMP accumulation in COS-7 cells transiently expressing the rat PTH1 receptor; assay type: cell-based; conditions: 3.2 μM TIP(7–39), agonist rPTH(1–34); read-out: pKB as concentration (converted)
# T5 construct: expressed in transfected cells; host or cells: COS-7 (transient)
# T5 sequence (P25961 27-591): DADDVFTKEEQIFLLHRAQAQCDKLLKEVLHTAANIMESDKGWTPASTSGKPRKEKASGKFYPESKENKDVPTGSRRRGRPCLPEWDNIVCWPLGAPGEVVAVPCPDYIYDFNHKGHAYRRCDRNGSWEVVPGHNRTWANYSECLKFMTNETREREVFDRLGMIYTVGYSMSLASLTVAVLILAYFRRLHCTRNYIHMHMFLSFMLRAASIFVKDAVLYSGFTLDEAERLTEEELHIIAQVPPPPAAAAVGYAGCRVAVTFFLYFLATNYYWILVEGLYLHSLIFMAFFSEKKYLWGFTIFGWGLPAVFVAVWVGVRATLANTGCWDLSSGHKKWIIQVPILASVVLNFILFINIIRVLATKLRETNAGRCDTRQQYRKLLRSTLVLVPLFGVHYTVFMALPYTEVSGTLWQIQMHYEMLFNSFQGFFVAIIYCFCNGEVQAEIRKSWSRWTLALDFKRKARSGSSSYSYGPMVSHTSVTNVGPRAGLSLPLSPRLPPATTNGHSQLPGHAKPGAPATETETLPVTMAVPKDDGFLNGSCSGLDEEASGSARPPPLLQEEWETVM
# [11] = target: T4, human PTH1 receptor; assay: Intracellular calcium concentration in Fluo-4-loaded HEK293 cells expressing the human PTH1 receptor; assay type: cell-based; parameters: expressed in transfected cells
# Method: HEK293 cells stably expressing the PTH1 receptor were seeded in wells of a 96-well plate at 100,000 cells per well. The following day, medium was removed and the cells washed once with 0.1 ml Dulbecco's phosphate buffered saline containing 1 mM Ca^2+ and 1 mM Mg^2+ (DPBS). Cells were then loaded with 5 μM Fluo-4 acetoxymethyl ester, with 0.1% (w/v) Pluronic F-127 and 2.5 mM probenecid in DPBS for 1 hour at 37° C. Following two washes with DPBS supplemented with 0.1% BSA, cells were incubated in 0.1 ml of the same buffer for 30 min at 37° C. This buffer was then removed and 50 μl pre-warmed DPBS with BSA added. Baseline fluorescence was then measured for 80 sec at 37° C. in a Cytofluor 4,000 multiwell plate fluorimeter (PerSpective Biosystems, Framington, Mass.) (excitation wavelength […], emission wavelength […]). Test agents were then added and fluorescence monitored as before. Fluorescence was measured in duplicate wells of cells for each experimental condition. Cytosolic free calcium concentration ([Ca^2+]i) was calculated using the equation: [Ca^2+]i=KD(F−Fmin)/(Fmax−F) where KD is the ion dissociation constant (345 nM) for the indicator and F the fluorescence signal in arbitrary units. Fmax (maximum fluorescence at Ca^2+-saturation of the indicator) was determined by addition of 130 μM ionomycin and Fmin (background fluorescence) measured after addition of 20 mM EGTA.
# [12] = target: T6, C-terminal hemaglutinin-tagged human PTH1 receptor (Homo sapiens, UniProt Q03431); assay: cAMP accumulation in COS-7 cells expressing a C-terminal hemaglutinin-tagged human PTH1 receptor; assay type: cell-based
# T6 sequence (Q03431 27-593): T4 sequence (Q03431 27-593)
# T2 sequence (P49190 25-550): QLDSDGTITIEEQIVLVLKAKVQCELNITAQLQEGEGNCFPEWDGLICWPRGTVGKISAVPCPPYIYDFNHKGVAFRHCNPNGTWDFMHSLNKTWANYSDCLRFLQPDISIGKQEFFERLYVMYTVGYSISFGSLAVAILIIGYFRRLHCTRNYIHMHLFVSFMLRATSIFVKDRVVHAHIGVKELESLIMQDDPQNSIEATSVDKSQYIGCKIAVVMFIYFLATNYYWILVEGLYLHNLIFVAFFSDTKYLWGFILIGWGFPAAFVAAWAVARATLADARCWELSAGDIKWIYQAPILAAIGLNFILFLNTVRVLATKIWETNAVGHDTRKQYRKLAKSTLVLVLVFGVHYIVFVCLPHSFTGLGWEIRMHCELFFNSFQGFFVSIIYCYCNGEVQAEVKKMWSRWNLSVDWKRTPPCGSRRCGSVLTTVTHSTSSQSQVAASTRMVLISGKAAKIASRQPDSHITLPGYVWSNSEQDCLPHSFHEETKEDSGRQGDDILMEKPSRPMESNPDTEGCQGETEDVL
# T3 sequence (P49190+Q03431 fused with the stated changes): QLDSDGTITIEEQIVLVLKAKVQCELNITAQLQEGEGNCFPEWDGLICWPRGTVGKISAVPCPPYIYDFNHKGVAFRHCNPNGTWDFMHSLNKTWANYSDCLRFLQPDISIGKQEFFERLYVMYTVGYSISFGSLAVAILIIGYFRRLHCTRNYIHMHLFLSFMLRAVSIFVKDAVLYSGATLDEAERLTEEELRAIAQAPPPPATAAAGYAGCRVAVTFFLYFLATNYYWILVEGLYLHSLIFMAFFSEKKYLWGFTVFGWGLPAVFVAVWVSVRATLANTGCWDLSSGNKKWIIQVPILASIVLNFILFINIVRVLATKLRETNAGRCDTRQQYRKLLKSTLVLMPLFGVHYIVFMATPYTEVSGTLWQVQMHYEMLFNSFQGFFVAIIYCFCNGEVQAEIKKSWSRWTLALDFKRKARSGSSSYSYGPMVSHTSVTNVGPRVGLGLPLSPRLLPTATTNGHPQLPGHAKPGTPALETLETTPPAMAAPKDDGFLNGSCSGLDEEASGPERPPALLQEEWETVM
# T1 sequence (Q03431+P49190 fused with the stated changes): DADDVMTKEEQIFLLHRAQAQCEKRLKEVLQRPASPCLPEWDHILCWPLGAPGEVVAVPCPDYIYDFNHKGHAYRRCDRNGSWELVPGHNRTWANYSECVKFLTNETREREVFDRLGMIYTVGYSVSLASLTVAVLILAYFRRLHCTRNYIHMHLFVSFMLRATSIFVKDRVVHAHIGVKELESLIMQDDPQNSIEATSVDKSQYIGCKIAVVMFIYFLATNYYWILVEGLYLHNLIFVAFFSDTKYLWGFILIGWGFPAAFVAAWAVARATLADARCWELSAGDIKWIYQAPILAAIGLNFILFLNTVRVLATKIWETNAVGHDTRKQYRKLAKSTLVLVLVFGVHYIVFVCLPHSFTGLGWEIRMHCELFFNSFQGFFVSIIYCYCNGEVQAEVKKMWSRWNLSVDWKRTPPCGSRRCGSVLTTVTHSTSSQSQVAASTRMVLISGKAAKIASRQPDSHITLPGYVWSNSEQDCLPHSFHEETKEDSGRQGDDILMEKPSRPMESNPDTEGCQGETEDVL
compound,measurement,setting,value
Nc1nc2c(ncn2[C@@H]2O[C@H](COP(=O)(O)OP(=O)(O)OP(O)(O)=S)[C@@H](O)[C@H]2O)c(=O)[nH]1 [GTPγS],reduction of radioligand binding,[1],69±6%
same,reduction of radioligand binding,[2],53±4%
same,reduction of [125I]TIP39 binding,"[3]; 10 μM GTPγS, filtration assay",62±2%
same,reduction of radioligand binding,[4],63±1%
same,reduction of radioligand binding,[5],5±2%
DAAFRERARLLAALERRHWLNSYMHKLLVLDAP [TIP(7–39)],activation of the PTH1 receptor,[6],did not detectably stimulate cAMP accumulation
same,"greater selectivity for the PTH1 receptor than [D-Tryp12, Tyr34]PTH(7–34) or PTHrP(7–34)","[7]; PTH1 over PTH2 receptor, 10 μM GTPγS",5.5 fold
same,higher affinity than TIP39,"[7]; filtration assay, no GTPγS",5.6 fold
same,higher affinity than TIP39,[7]; presence of 10 μM GTPγS,12 fold
same,affinity for the PTH1 receptor,[7]; summary statement,< 10 nM
same,accumulation of cAMP in the absence of agonist,[8]; 240 nM TIP(7–39),2.0±0.05 pmol/well
same,accumulation of cAMP in the absence of agonist,[8]; 760 nM TIP(7–39),2.2±0.05 pmol/well
same,accumulation of cAMP in the absence of agonist,[8]; 2.4 μM TIP(7–39),2.5±0.7 pmol/well
same,effect of human plasma on antagonist potency,[8]; 20% human plasma,did not reduce the antagonist potency
same,Schild slope,[8]; inhibition of rPTH(1–34)-stimulated cAMP,0.99±0.24
same,Kb,[8]; agonist PTHrP(1–34),110 nM
same,Kb,"[8]; agonist rPTH(1–34), Schild analysis",150 nM
same,ligand-stimulated cAMP accumulation,[9],loss of detectable ligand-stimulated cAMP accumulation
same,Kb,[10],310 nM
same,lower affinity than full-length TIP39,"[3]; filtration assay, no GTPγS (receptor-G-protein complex)",70 fold
same,lower binding potency than full-length TIP39,[3]; presence of 10 μM GTPγS,32 fold
same,reduction of peak [Ca2+]i increase,[11]; TIP(7–39) 1 μM against rPTH(1–34) 3 nM,79±1%
same,change in [Ca2+]i,"[11]; TIP(7–39) 1 μM, rPTH(1–34) 3 nM",No change in [Ca^2+]i
same,activation of adenylyl cyclase activity,[12],did not detectably activate adenylyl cyclase activity
same,level of cAMP accumulation,"[12]; 3.2 μM TIP(7–39), without ligand 0.95±0.04",0.91±0.04 pmol/well
